Assays:
S. pneumoniae D39V [1] = experiment: fitness (endpoint OD595 vs no drug) (fraction); higher = more growth
How it was run: (§1)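 Growth medium was TSB, LB Lennox or CY, and plates were kept at 37 °C. Inoculation was at OD595 0.01 in 384-well plates, at 30 µl per well or 55 µl for S. pneumoniae. OD595 was monitored every 30 min for 14 h and background-subtracted using the first reading. Fitness is the optical density on entering stationary phase divided by the robust mean of no-drug controls, with values capped at 1.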

S. aureus DSM 20231 [2] = experiment: as above
How it was run: as §1

S. aureus Newman [3] = experiment: Bliss interaction score (quartile over a dose matrix) (fitness difference); higher = more antagonism (negative = synergy)
How it was run: (§2)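 At entry into stationary phase, OD595 was recorded and divided by the robust mean of the no-drug wells on that plate, with any value above 1 set to 1. This gives the fitness measure used throughout. Single-drug fitness was inferred from combination data, and the Bliss score, observed minus product-expected fitness, is shown as quartiles across technical, biological and donor/recipient replicates.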

B. subtilis 168 [4] = experiment: as above
How it was run: as §2

S. pneumoniae D39V [5] = experiment: as above
How it was run: as §2

S. aureus DSM 20231 [6] = experiment: as above
How it was run: as §2

S. aureus Newman [7] = experiment: fitness (endpoint OD595 vs no drug) (fraction); higher = more growth
How it was run: as §1

B. subtilis 168 [8] = experiment: as above
How it was run: as §1
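For Bliss interaction score (quartile over a dose matrix) in this document: first quartile when negative (synergy) and third quartile when positive (antagonism).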

CCC[C@@H]1C[C@@H](C(=O)N[C@@H]([C@H]2O[C@H](SC)[C@H](O)[C@@H](O)[C@H]2O)[C@@H](C)O)N(C)C1 [Lincomycin] + Cn1nnc(-c2ccc(-c3ccc(N4C[C@H](CO)OC4=O)cc3F)cn2)n1 [Tedizolid]
fitness
Conditions | partner 0.03125 µg/mL | partner 0.0625 µg/mL | partner 0.125 µg/mL | partner 0.25 µg/mL | partner 0.5 µg/mL
S. aureus DSM 20231 [2], first compound 0.1 µg/mL | – | 0.806 | 0.683 | 0.364 | –
S. aureus DSM 20231 [2], first compound 0.2 µg/mL | – | 0.568 | 0.434 | 0.229 | –
S. aureus DSM 20231 [2], first compound 0.4 µg/mL | – | 0.27 | 0.182 | 0.115 | –
S. pneumoniae D39V [1], first compound 0.2 µg/mL | 0.732 | 0.796 | 0.665 | – | –
S. pneumoniae D39V [1], first compound 0.215 µg/mL | – | – | 0.754 | 0.731 | 0.345
S. pneumoniae D39V [1], first compound 0.4 µg/mL | 0.647 | 0.716 | 0.611 | – | –
S. pneumoniae D39V [1], first compound 0.43 µg/mL | – | – | 0.661 | 0.629 | 0.277
S. pneumoniae D39V [1], first compound 0.8 µg/mL | 0.549 | 0.67 | 0.57 | – | –
S. pneumoniae D39V [1], first compound 0.86 µg/mL | – | – | 0.209 | 0.162 | 0.0655

Conditions | Bliss interaction score
B. subtilis 168 [4] | 0.0845
S. aureus DSM 20231 [6] | -0.114
S. aureus Newman [3] | -0.129
S. pneumoniae D39V [5] | 0.138

COc1c(N2C[C@@H]3CCCN[C@@H]3C2)c(F)cc2c(=O)c(C(=O)O)cn(C3CC3)c12 [Moxifloxacin] + CN(C)c1cc(NC(=O)CNC(C)(C)C)c(O)c2c1C[C@H]1C[C@H]3[C@H](N(C)C)C(O)=C(C(N)=O)C(=O)[C@@]3(O)C(O)=C1C2=O [Tigecycline]
fitness
Conditions | partner 0.039 µg/mL | partner 0.078 µg/mL | partner 0.156 µg/mL | partner 0.65 µg/mL | partner 1.3 µg/mL | partner 2.6 µg/mL
B. subtilis 168 [8], first compound 0.0312 µg/mL | 0.0412 | 0.0391 | 0.0455 | – | – | –
B. subtilis 168 [8], first compound 0.0625 µg/mL | 0.0348 | 0.0627 | 0.0465 | – | – | –
B. subtilis 168 [8], first compound 0.125 µg/mL | 0.0497 | 0.0447 | 0.0454 | – | – | –
B. subtilis 168 [8], first compound 2 µg/mL | 0.0218 | 0.034 | 0.0374 | – | – | –
B. subtilis 168 [8], first compound 4 µg/mL | 0.0264 | 0.0295 | 0.0361 | – | – | –
B. subtilis 168 [8], first compound 8 µg/mL | 0.008 | 0.0149 | 0.0156 | – | – | –
S. aureus Newman [7], first compound 0.0075 µg/mL | 0.764 | 0.761 | 0.773 | – | – | –
S. aureus Newman [7], first compound 0.03 µg/mL | 0.0791 | 0.0794 | 0.113 | – | – | –
S. pneumoniae D39V [1], first compound 0.0037 µg/mL | – | – | – | 0.945 | 0.955 | 0.852
S. pneumoniae D39V [1], first compound 0.005 µg/mL | – | – | – | 0.931 | 0.929 | 0.909
S. pneumoniae D39V [1], first compound 0.0075 µg/mL | – | – | – | 0.937 | 0.94 | 0.905
S. pneumoniae D39V [1], first compound 0.01 µg/mL | – | – | – | 0.965 | 0.946 | 0.932
S. pneumoniae D39V [1], first compound 0.015 µg/mL | – | – | – | 0.932 | 0.929 | 0.901
S. pneumoniae D39V [1], first compound 0.02 µg/mL | – | – | – | 0.835 | 0.94 | 0.971

fitness, B. subtilis 168 [8], one replicate
Conditions | first compound 0.0312 µg/mL | first compound 0.0625 µg/mL | first compound 0.125 µg/mL
partner 0.125 µg/mL | 0.402 | 0.0347 | 0.0119
partner 0.25 µg/mL | 0.325 | 0.0048 | 0.0005
partner 0.5 µg/mL | 0.372 | 0.0104 | 0.0203

Conditions | Bliss interaction score
B. subtilis 168 [4] | -0.0275
S. aureus DSM 20231 [6] | -0.0652
S. aureus Newman [3] | -0.0557
S. pneumoniae D39V [5] | 0.0824

— the supplement of paper PMC10627819
